Values after ≈ are worked out from the molar mass of the structure shown.
Legend:
KB = experiment: Cytotoxicity against human KB cells; assay type: functional; settings: read-out: ED50 (the source's name)
P388 = experiment: Antileukemic activity against mouse P388 cells […] in BDF1 mouse at 8 mg/kg; assay type: functional

Molecule `CC(C)=C1C(=O)O[C@@H]2C[C@@H](C)[C@@H]3C=CC(=O)[C@]3(O)C[C@H]12` [MICROHELENIN F] has an EC50 (KB) of 11 µg/mL (≈ 39.8 µM) and a T/C (P388) of 116%.

Work on `CC(C)=C1C(=O)O[C@@H]2C[C@@H](C)[C@]3(O)C=CC(=O)[C@@H]3C[C@H]12` [MICROHELENIN E] yielded an EC50 (KB) of 1.38 µg/mL (≈ 4.99 µM) and a T/C (P388) of 166%.

From ChEMBL document CHEMBL1151389, “Antitumor agents 57. The isolation and structural elucidation of microhelenin-E, a new antileukemic nor-pseudoguaianolide, and microhelenin-F from Helenium microcephalum” (1982)
